Key:
[1] = tested on: renal cancers not expressing the VHL gene; details: xenografted nude mice; cited from earlier work
renal cancer xenografts = details: xenografts in nude mice, in some cases; cited from earlier work
[2] = tested on: cell lines and primary cells from numerous human tissues (tubular epithelium, podocytes, mesangial cells, fibroblasts, macrophages, endothelium, intestinal …); experiment: Effects of orellanine on other cell types, viability; type: cell-based; details: 24 h exposure, concentrations up to 1,000 μg/ml (highest achievable), observed six more days
Experimental: Cell lines and primary cells originated from numerous human tissues (tubular epithelium, podocytes and mesangial cells from renal tissue, fibroblasts, macrophages, aortic endothelium, microvascular endothelium and umbilical chord endothelium, intestinal epithelium (duodenal, jejunal, ileal and colonic) and chondrocytes) were cultured under standard conditions. When approximately 70% confluent and in stable growth, the cells were exposed for 24 h to medium containing orellanine in concentrations selected in order to achieve a dose response. […] To compensate for any growth retarding effects caused by dilution of the culture medium by the large volume of orellanine solution added, all cells were supplemented with equal volumes of orellanine buffer.

phosphorylated ERK 1/2 = experiment: Western blot of apoptosis pathways in renal cancer cells: ERK 1/2; type: cell-based, human; details: 100 μg/ml, up to 24 h; 786-0
Experimental: (§1) For ERK 1/2 and p38, the ratios of phosphorylated (f) to total protein should be compared. Cleaved caspase 3 should be compared to the loading control, beta actin.
(§2) Renal cancer cells were cultured and exposed to orellanine according to Example 7 and harvested at various times up to 24 h. The p38 MAPK system, the p53 system, Fas Ligand, Tumor Necrosis Factor alpha (TNF) and cleaved caspase 3 are key factors in apoptotic pathways leading to cell death. Western blotting was used to determine intracellular levels of A) p38, B) cleaved caspase 3, and C) the proliferative factor phosphorylated ERK 1/2.

[3] = tested on: phosphorylated retinoblastoma protein; experiment: Western blot of cell cycle proteins in renal cancer cells: phosphorylated Rb; type: cell-based, human; details: 100 μg/ml, 24 h measurement
Experimental: (§3) FIG. 5: Effects of orellanine on the cell cycle in renal cell carcinoma (786-0 and SKRC-52) (Western Blot).
(§4) Renal cancer cells, cultured essentially as described in Example 3, were treated with orellanin (100 μg/ml culture medium) for 24 h. During this period cells were harvested after 0, 2, 6 and 24 h exposure. Western blots were performed on the harvested material with antibodies directed against A) the kinase inhibitor p21, B) phosphorylated retinoblastoma protein (a growth stimulating factor), and C) the cdc2 protein which allows the cell to proceed into the M-phase of the cell cycle where the cell divides.

cortical renal tissue = details: healthy rats; cited from earlier work
kinase inhibitor p21 = experiment: Western blot of cell cycle proteins in renal cancer cells: p21; type: cell-based, human; details: 100 μg/ml, harvested 0, 2, 6, 24 h; 786-0 and SKRC-52
Experimental: as §3, §4

cleaved caspase 3 = experiment: Western blot of apoptosis pathways in renal cancer cells: cleaved caspase 3; type: cell-based, human; details: 24 h after exposure; 786-0
Experimental: as §1, §2

[4] = tested on: human clear cell cancer (SKRC52); experiment: Morphological signs of apoptosis during incubation with orellanine; type: cell-based; details: 4 h and 24 h incubation
renal carcinoma = experiment: Treatment of a human patient with advanced renal cell carcinoma; type: in vivo; details: 10 daily i.v. injections of 280 mg (4 mg/kg), hemodialysis after each, further series as needed
Experimental: The initial tumor burden of the patient is determined to be approximately 2 kg. Based on this value, the appropriate daily dose is determined to 280 mg (4 mg/kg at b.w. 70 kg). Before the first injection, the patient is prepared for hemodialysis or peritoneal dialysis since the Orellanine treatment will inevitably destroy healthy renal epithelial tissue along with the killing of the cancer cells, thus leaving the patient without renal function. Two hours after each injection, hemodialysis is started and maintained for 2 hours. […] Optionally, if the disease is unilateral, the unaffected kidney may be surgically removed and preserved during the treatment, and reimplantation attempted after conclusion of the treatment. The progress of the patient is monitored for one month, whereafter additional serial administrations of Orellanine are given as needed to inhibit growth of the renal carcinoma.

[5] = tested on: human renal carcinoma cells (SKRC-52); experiment: Subcutaneous human renal cell carcinoma in athymic rats; type: in vivo
From the text: (§5) Athymic, T cell-deficient rats (RNU, Charles River Laboratories, FRG) are used as a system for in vivo-growth of human renal cell carcinomas. The absence of a T cell-based immune defense in these animals makes them tolerant towards xenografts. One week after arrival in the animal facility 10 animals receive an X-irradiation dosis of 5 Gy in order to suppress also their B cell-mediated response.
(§6) The next day, all animals are equipped with an indwelling catheter for peritoneal dialysis (PD). PD treatment will replace the renal function that is lost as a side-effect upon administration of orellanine.
(§7) One day later, 5 animals are inoculated subcutaneously in the shoulder region with approximately 10×10^6 human renal carcinoma cells (SKRC-52). The 5 remaining animals receive the same amount of cells by intravenous injection. […] At this point 2 animals (controls) in each group are injected i.p. with physiological saline solution and the remaining 3 animals receive 10 mg orellanine/kg b.w. i.p.

[6] = Safety of i.v. orellanine during long term treatment with hemodialysis, pigs; details: 10 mg/kg initial, then 5 mg/kg after dialysis 3 times a week for 8 weeks
Experimental: (§8) 5 pigs of the Göttingen minipig strain and 5 dogs of mixed breeding (body weight 10-15 kg) are set up for hemodialysis using equipment designed for children and infants. The animals receive initial doses of 10 mg orellanine/kg b.w. 24 h later, the animals are subjected to a dialysis session of approximately 3 h. After dialysis, the animals are injected with 5 mg orellanine/kg b.w. The dialysis/reinjection procedure is repeated 3 times a week (Monday, Wednesday, Friday) for 8 weeks. Once a week an assessment of the animals' general condition is made. At the end of the experiment all animals are terminated, and specimens for histopathological evaluation are taken from heart, lung, kidney, liver, spleen, small intestine, large intestine, brain, muscle and skin.

[7] = tested on: human renal cell carcinomas (786-0 and SKRC7); experiment: Dose/response effect of orellanine on renal cell carcinoma cells; type: cell-based; details: single 24 h exposure
Experimental: Cells harvested from 2 different human renal cell carcinomas (SKRC-7, 786-0), representing both mother tumors and metastatic growths, were cultured under standard conditions. When approximately 70% confluent and in rapid growth, the cells were exposed to medium containing different concentrations of Orellanine […] for 24 h.

PUMA mRNA = experiment: Quantitative PCR of apoptosis mediators in renal cancer cells: PUMA; type: cell-based, human; details: SKRC-52, vs control cells without orellanine
[8] = Safety of i.v. orellanine during long term treatment with hemodialysis, dogs; details: 10 mg/kg initial, then 5 mg/kg after dialysis 3 times a week for 8 weeks
Experimental: as §8

[9] = tested on: human renal cell carcinoma 786-0; experiment: Repeated administration of a lower dose of orellanine, viability; type: cell-based; details: for number of viable cells: viability 96 h after first dose
Experimental: FIG. 4: Effect of repeated administration of a lower dose of orellanine. […] The first case is equivalent to a prolonged exposure of the cells (48 h), whereas the cells in the second case have been allowed to recover in orellanine-free medium for two days between the doses. Viability was measured 96 h after addition of the first orellanine dose.
Cells harvested from the human renal cell carcinoma 786-0 were cultured under standard conditions. When approximately 70% confluent and in rapid growth, the cells were exposed to medium containing a low concentration of Orellanine (20 μg/ml) for 24 h. Then the medium was changed to new medium either containing 20 μg/ml orellanine for 24 h (middle bar) or back to regular, complete medium for 48 h, followed by another 24 h in the presence of 20 μg/ml orellanine (rightmost bar).

cdc2 protein = experiment: Western blot of cell cycle proteins in renal cancer cells: cdc2; type: cell-based, human; details: 100 μg/ml, 24 h
Experimental: as §3, §4

[10] = tested on: human renal carcinoma cells (SKRC-52); experiment: Intravenously inoculated human renal cell carcinoma in athymic rats; type: in vivo; details: 10 mg/kg i.p. then 5 mg/kg i.v. at one and two weeks; terminated another week later
From the text: as §5, §6, §7

[11] = tested on: phosphorylated (activated) p38; experiment: Western blot of apoptosis pathways in renal cancer cells: p38; type: cell-based, human; details: 100 μg/ml, 24-h observation period; 786-0
Experimental: as §1, §2

[12] = tested on: Tumor Necrosis Factor alpha (TNF) mRNA; experiment: Quantitative PCR of apoptosis mediators in renal cancer cells: TNF; type: cell-based, human; details: SKRC-52, vs control cells without orellanine
[13] = tested on: human renal cell carcinomas (SKRC-52, 786-0, SKRC-17, SKRC-7 and SKRC-21); experiment: Viability of human renal cell carcinoma cells for 7 days after 24 h exposure to orellanine; type: cell-based; details: 400 μM orellanine for 24 h, then orellanine-free medium, observed six more days
Experimental: FIG. 1: Observation of the viability of cells from 5 different human renal cell carcinomas (primary tumors and metastases) during 7 days following 24 h of exposure to 400 μM orellanine (100 μg/ml culture medium. Viability is calculated by dividing the number of living cells in treated samples by the number of living cells in control samples (n=6). The gray area in the graph represents the period of orellanine incubation (24 h). The following days the cells were cultured in orellanine-free complete culture medium. The medium was changed at each viability measurement.
The pictures shown in FIGS. 2A and 2B were taken with the same magnification, and one week after incubation with orellanine/vehicle.
Cells harvested from 5 different human renal cell carcinomas (SKRC-52, 786-0, SKRC-17, SKRC-7 and SKRC-21), representing both mother tumors and metastatic growths, were cultured under standard conditions. When approximately 70% confluent and in rapid growth, the cells were exposed to medium containing Orellanine (400 μM) for 24 h.

Fas ligand (FasL) mRNA = experiment: Quantitative PCR of apoptosis mediators in renal cancer cells: Fas ligand; type: cell-based, human; details: SKRC-52, vs control cells without orellanine

In the case of CO[C@@H]1[C@H](O)C[C@@H](O[C@@H]2C[C@H](Oc3cc4cc5c(c(O)c4c(O)c3C)C(=O)[C@@H](O[C@H]3C[C@@H](O[C@H]4C[C@@H](O[C@H]6C[C@](C)(O)[C@@H](OC(C)=O)[C@H](C)O6)[C@H](O)[C@@H](C)O4)[C@H](O)[C@@H](C)O3)[C@H]([C@H](OC)C(=O)[C@@H](O)[C@@H](C)O)C5)O[C@H](C)[C@@H]2OC(C)=O)O[C@@H]1C [Chromomycin A3], the tumor growth [1] is listed as “significantly retarded tumor growth”.
In the case of Cc1cc(N(CCOS(C)(=O)=O)CCOS(C)(=O)=O)ccc1C=O [NSC-281612], the “effect on tumor mass” value (renal cancer xenografts) is listed as “apparently complete eradication of the tumor mass”.
With [O-][n+]1ccc(O)c(O)c1-c1c(O)c(O)cc[n+]1[O-] [Orellanine, 3,3′,4,4′-tetrahydroxy-2,2′-bipyridine-N,N′-dioxide] the effects on viability [2] was “None of the tested cell types exhibited any effects on viability”, the “phosphorylated ERK 1/2” value (phosphorylated ERK 1/2) was “up-regulation” and the “phosphorylated forms of the retinoblastoma protein” value [3] was “completely lacking”. The “expression of several key antioxidant genes” value (cortical renal tissue) was “dramatically decreased expression”, the “oxidative stress in cortical renal tissue” value (cortical renal tissue) was “increased oxidative stress” and the “intracellular levels of p21” value (kinase inhibitor p21) was “increased with a maximum around 6 h”. For the same compound, the “amount of cleaved caspase-3” value (cleaved caspase 3) was “dramatically increased”, the “typical signs of apoptosis, vacuolization and cell shrinkage” value [4] was “evident already after 4 h incubation, and are further aggravated after 24 h” and the “renal cancer at the conclusion of the treatment” value (renal carcinoma) was “completely eradicated”. The “signs of the tumors” value ([5]; 10 mg/kg i.p. then 5 mg/kg into the tumor site, another 2 weeks later) was “no signs of the tumors are evident”, the “tumor size relative to the size recorded at the time of injection” value ([5]; 10 mg/kg i.p., two weeks after first injection) was “less than 25%” and the “reduction of tumor size” value ([5]; former control animals, 10 mg/kg into the tumor site, after 2 weeks) was “more than 75%”. The “behavior and general condition” value [6] was “remain normal”, the histopathological examination [6] was “no tissue damage with the exception of the kidneys where there is widespread tubular damage leading to complete renal failure” and the “dose response interval (orellanine dose vs cell death)” value [7] was 5 to 200 µg/mL. For the same compound, the “PUMA mRNA expression” value (PUMA mRNA) was “extreme up-regulation”, the “behavior and general condition” value [8] was “remain normal” and the histopathological examination [8] was “no tissue damage with the exception of the kidneys where there is widespread tubular damage leading to complete renal failure”. The “toxic effects of repeated exposure” value ([9]; repeated exposure at lower limit of the single exposure response interval (20 μg/ml)) was “further, marked toxic effects”, the “number of viable cells” value ([9]; second dose 20 μg/ml 24 h after the first dose) was “strong decrease in the number of viable cells” and the “number of viable cells” value ([9]; second dose 20 μg/ml at 72 h) was “considerably smaller, but still significant, effect”. For the same compound, the cdc2 protein level (cdc2 protein) was “dramatically down-regulated”, the “tumor burden relative to control animals” value [10] was “less than 10%” and the “phosphorylated (activated) p38” value [11] was “steady increase”. The “TNF mRNA expression” value [12] was “extreme up-regulation”, the “toxicity to the tested cell types (viability)” value [13] was “highly toxic to all the tested cell types” and the “FasL mRNA expression” value (Fas ligand (FasL) mRNA) was “extreme up-regulation”.

— patent publication US8349823B2, “Treatment of renal cell carcinoma” (priority 2008, dated 2013)
